IC50 data for 23 compounds are collected here from patent publication US10221139B2, “Inhibitors of histone demethylases” (Gilead Sciences, Inc., priority 2012, dated 2019).

As a reminder, the IC50 is the midpoint of a concentration-inhibition curve. High values mean weaker potency, low ones greater potency.

What all share (format): biochemical
The target in one assay is T1, GASC1 (KDM4C, JMJD2C) (Homo sapiens, UniProt Q9H3R0).
T1 construct: 1-349; host or cells: E. coli
T1 sequence (Q9H3R0 1-349): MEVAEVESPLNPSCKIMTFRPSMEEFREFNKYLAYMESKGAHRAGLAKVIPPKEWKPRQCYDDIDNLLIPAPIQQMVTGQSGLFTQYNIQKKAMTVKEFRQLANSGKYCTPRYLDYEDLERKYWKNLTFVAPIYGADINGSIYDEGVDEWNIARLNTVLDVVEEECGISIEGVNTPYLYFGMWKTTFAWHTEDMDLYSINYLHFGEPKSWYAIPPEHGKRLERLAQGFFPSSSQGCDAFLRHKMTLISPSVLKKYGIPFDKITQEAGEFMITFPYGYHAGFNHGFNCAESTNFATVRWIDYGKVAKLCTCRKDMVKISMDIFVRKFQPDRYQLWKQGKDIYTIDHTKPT
The assay is described as follows: Histone lysine demethylase AlphaLISA assay, GASC1. As to conditions: substrate BK9M3. As to the method: (§1) Example 2: Histone Lysine Demethylase AlphaLISA Assays for IC50 Value Determination
(§2) Assays are performed analogously to the protocol described by Perkin Elmer (Roy et al. Perkin Elmer Technical Note: AlphaLISA #12, April 2011).
(§3) Enzymes are dissolved in enzyme buffer and incubated for 10 min before 5 μL is added to 5 μL 3% DMSO solutions of compounds in enzyme buffer. Incubated for another 10 minutes, before 5 μL substrate solution is added and the reaction mixture is incubated at room temperature for the given period. 10 μL acceptor beads, suspended at given dilutions in Epigenetic Buffer (Perkin Elmer AL008) from stock, are added and the suspension is incubated 60 minutes in the dark at room temperature, before 10 μL suspension (at the given dilutions in Epigenetic Buffer) of streptavidin donor beads (Perkin Elmer 6760002) in Epigenetic Buffer is added. After incubation at room temperature in the dark the plates are read. Reaction conditions are seen in Table 2b.
For orientation: Alpha assays give light when donor and acceptor beads are brought close together.

For a further assay, the target named is T2, PLU1 (KDM5B) (Homo sapiens, UniProt Q9UGL1).
T2 construct: 1-809; host or cells: E. coli
T2 sequence (Q9UGL1 1-809): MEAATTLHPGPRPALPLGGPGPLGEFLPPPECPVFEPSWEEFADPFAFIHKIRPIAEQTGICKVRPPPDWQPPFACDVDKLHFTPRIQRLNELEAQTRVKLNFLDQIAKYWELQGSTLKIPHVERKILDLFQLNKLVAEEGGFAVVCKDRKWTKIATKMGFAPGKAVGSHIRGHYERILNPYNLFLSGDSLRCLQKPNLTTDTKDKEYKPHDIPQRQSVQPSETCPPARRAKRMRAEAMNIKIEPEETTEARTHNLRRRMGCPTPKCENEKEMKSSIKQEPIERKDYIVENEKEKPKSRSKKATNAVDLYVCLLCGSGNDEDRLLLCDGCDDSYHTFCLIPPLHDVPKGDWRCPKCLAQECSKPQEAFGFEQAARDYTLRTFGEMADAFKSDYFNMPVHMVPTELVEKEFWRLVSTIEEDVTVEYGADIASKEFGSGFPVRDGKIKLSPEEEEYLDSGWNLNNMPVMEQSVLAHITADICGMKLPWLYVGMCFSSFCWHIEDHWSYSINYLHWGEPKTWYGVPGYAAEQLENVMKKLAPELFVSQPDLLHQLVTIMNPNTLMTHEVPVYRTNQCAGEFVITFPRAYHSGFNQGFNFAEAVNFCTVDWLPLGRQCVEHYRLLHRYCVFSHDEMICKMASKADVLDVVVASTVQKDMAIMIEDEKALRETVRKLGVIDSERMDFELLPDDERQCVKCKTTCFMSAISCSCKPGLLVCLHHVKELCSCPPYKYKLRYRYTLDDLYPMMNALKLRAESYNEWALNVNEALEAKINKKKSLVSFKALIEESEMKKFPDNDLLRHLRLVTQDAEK
The assay is described as follows: Histone lysine demethylase AlphaLISA assay, PLU1. As to conditions: substrate H3K4M3B. Here is the method: as §1, §2, §3

Another assay concerns the target T3, UTX (KDM6A) (Homo sapiens, UniProt O15550).
T3 construct: 919-1401; host or cells: E. coli
Put plainly: Histone lysine demethylase AlphaLISA assay, UTX. As to conditions: substrate BK27M3. As to the method:
as §1, §2, §3

Structures are written as SMILES.

T3 sequence (O15550 919-1401): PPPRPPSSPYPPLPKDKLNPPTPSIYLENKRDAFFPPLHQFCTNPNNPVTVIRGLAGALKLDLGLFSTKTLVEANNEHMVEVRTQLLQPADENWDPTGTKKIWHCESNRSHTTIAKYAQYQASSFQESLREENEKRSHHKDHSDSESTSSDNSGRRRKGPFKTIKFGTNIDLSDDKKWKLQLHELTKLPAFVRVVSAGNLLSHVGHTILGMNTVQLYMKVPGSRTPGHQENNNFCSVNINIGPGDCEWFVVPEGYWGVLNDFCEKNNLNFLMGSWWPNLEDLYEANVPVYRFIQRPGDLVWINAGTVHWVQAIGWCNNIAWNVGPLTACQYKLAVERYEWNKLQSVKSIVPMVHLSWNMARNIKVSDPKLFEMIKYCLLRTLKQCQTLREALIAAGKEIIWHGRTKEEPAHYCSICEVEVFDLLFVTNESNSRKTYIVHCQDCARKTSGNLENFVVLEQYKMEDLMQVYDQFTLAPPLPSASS

Take `O=C(O)c1ccnc(CNCC(=O)N2CCC[C@@H]2CN2CCCC2)c1` [#18, 2-[({2-oxo-2-[(2R)-2-(pyrrolidin-1-ylmethyl)pyrrolidin-1-yl]ethyl}amino)methyl]pyridine-4-carboxylic acid]: the half-inhibitory concentration (IC50) against GASC1 (KDM4C, JMJD2C) is under 100 nM; on PLU1 (KDM5B) it was under 100 nM; against UTX (KDM6A) it was at least 1000 nM.

Turning to `CC(C)(C)OC(=O)N1CC[C@@H](NCc2cc(C(=O)O)ccn2)C1` [#19, 2-({[(3R)-1-[(tert-butoxy)carbonyl]pyrrolidin-3-yl]amino}methyl)pyridine-4-carboxylic acid], the IC50 on GASC1 (KDM4C, JMJD2C) was at least 1000 nM; at PLU1 (KDM5B) it was at least 1000 nM; against UTX (KDM6A), at least 1000 nM.

For `O=C(O)c1ccnc(CNCCCNCCCN2CCCC2)c1` [#21, 2-{[(3-{[3-(pyrrolidin-1-yl)propyl]amino}propyl)amino]methyl}pyridine-4-carboxylic acid], the IC50 against GASC1 (KDM4C, JMJD2C) was under 100 nM; on PLU1 (KDM5B) it was under 100 nM; on UTX (KDM6A), at least 1000 nM.

Consider `CC(C)CCNCc1cc(C(=O)O)ccn1` [#22, 2-{[(3-methylbutyl)amino]methyl}pyridine-4-carboxylic acid], for which the IC50 at GASC1 (KDM4C, JMJD2C) was 100 to 1000 nM; at PLU1 (KDM5B) it was 100 to 1000 nM; at UTX (KDM6A), at least 1000 nM.

For `CN(CCC(N)=O)C(=O)CNCc1cc(C(=O)O)ccn1` [#23, 2-[({[(2-carbamoylethyl)(methyl)carbamoyl]methyl}amino)methyl]pyridine-4-carboxylic acid], the IC50 was under 100 nM against GASC1 (KDM4C, JMJD2C); under 100 nM against PLU1 (KDM5B); at least 1000 nM against UTX (KDM6A).

Turning to `O=C(O)c1ccnc(CNCC(=O)N2CCCCC2CO)c1` (stereo not drawn) [#24, 2-[({2-[2-(hydroxymethyl)piperidin-1-yl]-2-oxoethyl}amino)methyl]pyridine-4-carboxylic acid], the IC50 on GASC1 (KDM4C, JMJD2C) was under 100 nM; on PLU1 (KDM5B) it was under 100 nM; on UTX (KDM6A), at least 1000 nM.

`CN(CCCc1nccn1C)C(=O)CNCc1cc(C(=O)O)ccn1` [#25, 2-{[({methyl[3-(1-methyl-1H-imidazol-2-yl)propyl]carbamoyl}methyl)amino]methyl}pyridine-4-carboxylic acid]: the IC50 is under 100 nM on GASC1 (KDM4C, JMJD2C); under 100 nM at PLU1 (KDM5B); at least 1000 nM against UTX (KDM6A).

With `CCN1CCCC1CNC(=O)CNCc1cc(C(=O)O)ccn1` (stereo not drawn) [#26, 2-{[({[(1-ethylpyrrolidin-2-yl)methyl]carbamoyl}methyl)amino]methyl}pyridine-4-carboxylic acid], the IC50 is under 100 nM at GASC1 (KDM4C, JMJD2C); under 100 nM at PLU1 (KDM5B); at least 1000 nM against UTX (KDM6A).

On to `CN(Cc1ccnn1C)C(=O)CNCc1cc(C(=O)O)ccn1` [#27, 2-{[({methyl[(1-methyl-1H-pyrazol-5-yl)methyl]carbamoyl}methyl)amino]methyl}pyridine-4-carboxylic acid], for which the IC50 was under 100 nM on GASC1 (KDM4C, JMJD2C); under 100 nM against PLU1 (KDM5B); at least 1000 nM against UTX (KDM6A).

As to `O=C(CNCc1cc(C(=O)O)ccn1)NC1CCN(CCCc2ccccc2)CC1` [#30, 2-{[({[1-(3-phenylpropyl)piperidin-4-yl]carbamoyl}methyl)amino]methyl}pyridine-4-carboxylic acid], the 50% inhibitory concentration (IC50) on GASC1 (KDM4C, JMJD2C) is under 100 nM; at PLU1 (KDM5B), under 100 nM; against UTX (KDM6A), at least 1000 nM.

On to `O=C(CNCc1cc(C(=O)O)ccn1)NC1CCN(Cc2ccco2)CC1` [#31, 2-{[({[1-(furan-2-ylmethyl)piperidin-4-yl]carbamoyl}methyl)amino]methyl}pyridine-4-carboxylic acid], for which the IC50 was under 100 nM against GASC1 (KDM4C, JMJD2C); under 100 nM against PLU1 (KDM5B); 100 to 1000 nM against UTX (KDM6A).

Consider `O=C(CNCc1cc(C(=O)O)ccn1)NC1CCN(Cc2ccc(-c3ccccc3)o2)CC1` [#32, 2-({[({1-[(5-phenylfuran-2-yl)methyl]piperidin-4-yl}carbamoyl)methyl]amino}methyl)pyridine-4-carboxylic acid], for which the IC50 is under 100 nM against GASC1 (KDM4C, JMJD2C); under 100 nM on PLU1 (KDM5B); at least 1000 nM on UTX (KDM6A).

In the case of `CCN(CCC#N)C(=O)CNCc1cc(C(=O)O)ccn1` [#33, 2-[({[(2-cyanoethyl)(ethyl)carbamoyl]methyl}amino)methyl]pyridine-4-carboxylic acid], the IC50 is under 100 nM at GASC1 (KDM4C, JMJD2C); under 100 nM against PLU1 (KDM5B); at least 1000 nM against UTX (KDM6A).

In the case of `CN(CCCNCc1cc(C(=O)O)ccn1)Cc1ccccc1F` [#36, 2-{[(3-{[(2-fluorophenyl)methyl](methyl)amino}propyl)amino]methyl}pyridine-4-carboxylic acid], the IC50 is under 100 nM at GASC1 (KDM4C, JMJD2C); under 100 nM against PLU1 (KDM5B); at least 1000 nM against UTX (KDM6A).

With `O=C(O)c1ccnc(CNCC(=O)N2CCCC(Cc3nc4ccccc4[nH]3)C2)c1` (stereo not drawn) [#38, 2-[({2-[3-(1H-1,3-benzodiazol-2-ylmethyl)piperidin-1-yl]-2-oxoethyl}amino)methyl]pyridine-4-carboxylic acid], the IC50 on GASC1 (KDM4C, JMJD2C) was under 100 nM; against PLU1 (KDM5B), under 100 nM; on UTX (KDM6A), at least 1000 nM.

As to `O=C(CNCc1cc(C(=O)O)ccn1)NC1CCN(CCc2ccccc2)C1` (stereo not drawn) [#39, 2-{[({[1-(2-phenylethyl)pyrrolidin-3-yl]carbamoyl}methyl)amino]methyl}pyridine-4-carboxylic acid], the IC50 against GASC1 (KDM4C, JMJD2C) was under 100 nM; against PLU1 (KDM5B), under 100 nM; at UTX (KDM6A) it was at least 1000 nM.

As to `O=C(O)c1ccnc(CNCCCN2CCC(Cc3ccccc3)CC2)c1` [#40, 2-({[3-(4-benzylpiperidin-1-yl)propyl]amino}methyl)pyridine-4-carboxylic acid], the IC50 is under 100 nM on GASC1 (KDM4C, JMJD2C); under 100 nM on PLU1 (KDM5B); at least 1000 nM on UTX (KDM6A).

On to `O=C(O)c1ccnc(CNCCCNCCOc2ccccc2)c1` [#41, 2-[({3-[(2-phenoxyethyl)amino)propyl}amino)methyl]pyridine-4-carboxylic acid], for which the IC50 was under 100 nM on GASC1 (KDM4C, JMJD2C); under 100 nM against PLU1 (KDM5B); at least 1000 nM on UTX (KDM6A).

For the compound `CN1CCN(Cc2ccc(CN(C)C(=O)CNCc3cc(C(=O)O)ccn3)cc2)CC1` [#42, 2-[({[methyl({4-[(4-methylpiperazin-1-yl)methyl]phenyl}methyl)carbamoyl]methyl}amino)methyl]pyridine-4-carboxylic acid], the IC50 against GASC1 (KDM4C, JMJD2C) is under 100 nM; against PLU1 (KDM5B) it was under 100 nM; against UTX (KDM6A), 100 to 1000 nM.

As for `O=C(O)c1ccnc(CNCC(=O)N2CCCC2Cc2ccccc2)c1` (stereo not drawn) [#43, 2-({[2-(2-benzylpyrrolidin-1-yl)-2-oxoethyl]amino}methyl)pyridine-4-carboxylic acid], the IC50 on GASC1 (KDM4C, JMJD2C) is under 100 nM; against PLU1 (KDM5B), under 100 nM; at UTX (KDM6A), at least 1000 nM.

As for `CCOC(=O)c1ccccc1OC(=O)c1ccnc(CNCCCCN(CC)CC)c1` [#52, 2-(ethoxycarbonyl)phenyl 2-({[4-(diethylamino)butyl]amino}methyl)pyridine-4-carboxylate], the IC50 was 100 to 1000 nM on GASC1 (KDM4C, JMJD2C); under 100 nM on PLU1 (KDM5B); at least 1000 nM at UTX (KDM6A).

Take `CCN(CC)CCCCNCc1cc(C(=O)OCCN(C)C)ccn1` [#53, 2-(dimethylamino)ethyl 2-({[4-(diethylamino)butyl]amino}methyl)pyridine-4-carboxylate]: the IC50 on GASC1 (KDM4C, JMJD2C) was under 100 nM; against PLU1 (KDM5B), under 100 nM; against UTX (KDM6A), at least 1000 nM.

For the compound `CCN(CC)CCCCNCc1cc(C(=O)OCCCN(C)C)ccn1` [#54, 3-(dimethylamino)propyl 2-({[4-(diethylamino)butyl]amino}methyl)pyridine-4-carboxylate], the IC50 on GASC1 (KDM4C, JMJD2C) was 100 to 1000 nM; at PLU1 (KDM5B) it was under 100 nM; on UTX (KDM6A), at least 1000 nM.
